Laboratory results reported in article PMC4308110 (PLoS ONE, 2015).

Molecular target: T1, SthK-Cterm (Winmispira thermophila, UniProt E0RR11)
T1 construct: gene STHERM_c06300; C-linker/CNBD, residues 226-430 of full length; synthetic gene, His6-MBP fusion cut with thrombin; E. coli BL21(DE3); tetramer (SEC-MALLS); model residues 226-423
Test: X-ray crystal structure
Conditions: antagonist; 5 mM cGMP added; bistrispropane pH 7.5, 20 °C; 2.55 Å; cyclic nucleotide-binding site

T1 sequence (E0RR11 entry or part of it): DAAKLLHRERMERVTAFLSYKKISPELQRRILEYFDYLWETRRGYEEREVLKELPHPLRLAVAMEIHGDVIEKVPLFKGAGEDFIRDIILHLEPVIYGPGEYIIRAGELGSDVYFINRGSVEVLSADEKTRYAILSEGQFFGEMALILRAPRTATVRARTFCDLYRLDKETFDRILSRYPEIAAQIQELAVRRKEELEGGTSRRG

For `Nc1nc2c(ncn2[C@@H]2O[C@@H]3COP(=O)(O)O[C@H]3[C@H]2O)c(=O)[nH]1` [cGMP], the X-ray crystal structure was “we observe that cGMP is able to bind in the cyclic nucleotide binding cavity from SthK”.
